Ends that are not written are not given here. Peptide text beside a SMILES is read from it. * marks the point of attachment. fluorescein = fluorescein group attached to the lysine side chain; Benzoyl(4-Br) = O=C(c1ccc(Br)cc1)*; Myristoyl = CCCCCCCCCCCCCC(=O)*; Bz = O=C(c1ccccc1)*

This is an account of results in patent US9163063B2, “Peptides and nanoparticles for therapeutic and diagnostic applications” (Trustees of Dartmouth College, priority 2009, dated 2015).

The subject of series [1] is MIAPaCa2 pancreatic cancer cells. Nature of the series: Subcutaneous MIAPaCa2 tumor, intratumoral peptide for 27 days. It counts as in vivo, nude mice. To be noted: whole course of treatment. As to the method: When the tumor reached about 5 mm-15 mm in diameter after subcutaneous transplantation of MIAPaCa2 cells (n=10 treatment, n=10 control) into the mouse right flank, mice were treated with 10 mM of peptide for 27 days dissolved in DMSO. The peptide was applied directly into the tumor. The control group was treated with phosphate buffered saline solution alone.
HE staining and immunostaining for Ki67 (n=6 treatment, n=7 control) was performed as described by the manufacturer. For evaluation the Zeiss Axioplan 2 microscope was used. Photos are made with Zeiss Axiocam. For photos 40× objectives were used. Statistical Analysis. Data are presented as means and differences in means with 95% confidence intervals for the differences. Tests for statistical differences were performed using t-tests and Mann-Whitney tests and Wilcoxon tests. For the in vivo experiments, at least 10 mice were used each group. This number was derived by power analysis to detect a 50% reduction in tumor size, with a beta error of 3%. Because the overall sample size was small and outcome variables could have a non-normal distribution, the non-parametric Mann-Whitney test was used to detect statistical significant differences in each group. P values less than 0.05 were considered to be significant. The significance of the tumor take rates was calculated by using a Wilcoxon-test. […]

In series [2] the test system is AsPC1 cells. As to the kind of experiment: Cellular localization of fluorescein-tagged analogs (confocal). It counts as cell-based, human. The source says:
Furthermore, the cellular localization of both CR1023 and CR1166 was investigated in AsPC1 cells using their fluorescein-tagged analogs CR1171 and CR1173 (FIG. 24). CR1172, the fluorescein-tagged analog of CR1164 was used as a control. The green (for fluorescein) and blue (for DAPI) fluorescent microscopy images were collected for AsPC1 cells treated with peptides CR1171, CR1172 and CR1173 using a LSM 510 confocal laser scan microscope. The presence of green fluorescence in FIGS. 24d, -g, -j indicated the internalization of CR1171, CR1172 and CR1173. Untreated AsPC1 cells were devoid of the green fluorescent signal.

Series [3] deals with AsPC1 cells. It counts as cell-based, human. To be noted: 50-200 μM, 48 h-96 h (Example 6). As for the experimental part: (§1) MDA231-W and AsPC1 cells were cultured in RPMI 1640 media supplemented with 10% fetal bovine serum (FBS), 5% L-Glutamine, and 1% antibiotics (penicillin-streptomycin purchased from Invitrogen, Carlsbad, Calif.). Cells were maintained at 37° C. in an atmosphere containing 95% air-5% CO2 (v/v). Cells were then incubated with different doses of GIPC inhibitor peptides (50-200 μM) for different time (48 h to 96 h). MDA-231 WT (4×10^4) and AsPC1 cells (2×10^4) were seeded in 24-well plates, cultured for 1 d in RPMI 1640 medium supplemented with 10% FBS, 5% L-Glutamine, and 1% antibiotics. Cells were then incubated with GIPC inhibitor peptides in a time dependent (48 h-96 h) and dose dependent manner (50-200 μM). After certain time of incubation, 1 μCi [^3H]-thymidine was added and proliferation assay performed as previously described. Experiments were repeated at least thrice and in triplicate.

Another series has as its system MDA-MB-231-WT cells. As to the kind of experiment: Apoptosis assay (annexin/PI). The note with it: 50-200 μM. It counts as cell-based. As for the experimental part: (§2) MDA231-WT and AsPC1 ells were seeded into 6-well plates at a density of 4×10^5/2 ml of RPMI medium per well and grown overnight. Next day cells were treated with GIPC inhibitor peptides in a time dependent (48 h-96 h) and dose dependent manner (50-200 μM). After treatment with definite time, cells were extensively washed with PBS and tested with the Annexin V-FITC Apoptosis Detection Kit (Biovision, Cat. No. #K101-100) per the manufacturer's instructions.

Series [4] deals with MDA-MB-231-WT breast cancer cells. It counts as cell-based. The note with it: 50-200 μM, 48 h-96 h (Example 6). As to the method: as §1
Series [5] deals with AsPC1 cells. Nature of the series: Apoptosis assay (annexin/PI). It counts as cell-based, human. To be noted: 50-200 μM. As to the method: as §2

Regarding `CCCCCCCCCCCCCC(=O)N1CCC[C@H]1C(=O)N[C@@H](CO)C(=O)N[C@@H](CCC(N)=O)C(=O)N[C@@H](CO)C(=O)N[C@@H](CO)C(=O)N[C@@H](CO)C(=O)N[C@@H](CCC(=O)O)C(=O)N[C@@H](C)C(=O)O` [PSQSSSEA, P-S-Q-S-S-S-E-A] (Myristoyl-PSQSSSEA-OH), the toxicity during treatment result in series [1] (listed as GIPC-PDZ-targeting peptide) is “without showing toxicity”; in series [1] (listed as PDZ domain inhibitor), “did not show any toxicity”.

As for “My-K(FI)PSQSK(4-Br-ben)SK(4-Br-ben)A (Myristoyl-K(fluorescein)PSQSK(Benzoyl(4-Br))SK(Benzoyl(4-Br))A) [CR1173]”, in the series on AsPC1 cells [2], the cellular localization result is “localized on the membrane” and the “internalization (green fluorescence)” value is “internalization”.

Regarding “My-K(FI)PSQSK(ben)SK(ben)A (Myristoyl-K(fluorescein)PSQSK(Bz)SK(Bz)A) [CR1172]”, in the series on AsPC1 cells [2], the cellular localization result is on record as “more dispersely localized” and the “internalization (green fluorescence)” value is “internalization”.

“My-K(FI)PSQSSSEA (Myristoyl-K(fluorescein)PSQSSSEA) [CR1171]”: in the series on AsPC1 cells [2], the cellular localization entry is “more dispersely localized” and the “internalization (green fluorescence)” value is reported as “internalization”.

Regarding “My-LLQGPSQSSSEA (Myristoyl-LLQGPSQSSSEA) [SEQ ID NO: 22]”, the “inhibition of cell proliferation” value (in the series on AsPC1 cells [3]; in series [4]) was “significant inhibitions” each time. Moreover, the induction of apoptosis result in the series on MDA-MB-231-WT cells and in the series with AsPC1 cells [5] was “significant induction of apoptosis” throughout.

For “My-PSQSK(4-Br-ben)SEA (Myristoyl-PSQSK(Benzoyl(4-Br))SEA) [CR1170]”, the induction of apoptosis result in the series with MDA-MB-231-WT cells and with AsPC1 cells [5] was “no effect” in each case.

For “My-PSQSK(ben)SK(ben)A (Myristoyl-PSQSK(Bz)SK(Bz)A) [CR1164]”, the “inhibition of cell proliferation” value (in the series on AsPC1 cells [3]; in series [4]) was “almost no or little effect” throughout. In addition, the induction of apoptosis entry with MDA-MB-231-WT cells and in the series with AsPC1 cells [5] was “no effect” each time.

In the case of “My-PSQSSSK(4-Br-ben)A (Myristoyl-PSQSSSK(Benzoyl(4-Br))A) [CR1162]”, the “inhibition of cell proliferation” value (in the series with AsPC1 cells [3]; in series [4]) was “almost no or little effect” each time.

With “My-SESPSASQ (Myristoyl-SESPSASQ) [CR2055]”, the “inhibition of cell proliferation” value (in the series with AsPC1 cells [3]; in series [4]) was “no effect” in each case. The induction of apoptosis entry in the series on MDA-MB-231-WT cells and in the series with AsPC1 cells [5] was “no effect” throughout.

For the compound “My-SPSASK(4-Br-ben)SQ (Myristoyl-SPSASK(Benzoyl(4-Br))SQ) [CR2059]”, the “inhibition of cell proliferation” value (in the series on AsPC1 cells [3]; in series [4]) was “very little effect” throughout. Also, the induction of apoptosis result in the series with MDA-MB-231-WT cells and in the series on AsPC1 cells [5] was “no effect” throughout.
